Measurements taken from US20020086862A1, “Novel compounds” (AstraZeneca AB, priority 1998, published 2002).

Compound	melting point [°C]
COC(=O)c1ccccc1-c1nn(Cc2ccccc2)c(=S)[nH]1 [Example 2, 2-[1,2-Dihydro-1-(phenylmethyl)-5-thioxo-3H-1,2,4-triazol-3-yl]benzoic acid, methyl ester]	129 to 130
COC(=O)c1ccc(-c2nn(Cc3ccccc3)c(=S)[nH]2)cc1 [Example 3, 4-[1,2-Dihydro-1-(phenylmethyl)-5-thioxo-3H-1,2,4-triazol-3-yl]benzoic acid, methyl ester]	> 215
S=c1[nH]c(-c2ccc(Cl)s2)nn1Cc1ccccc1 [Example 4, 5-(5-Chloro-2-thienyl)-1,2-dihydro-2-(phenylmethyl)-3H-1,2,4-triazole-3-thione]	79 to 80
S=c1[nH]c(-c2cccc(Cl)c2)nn1Cc1ccccc1 [Example 5, 5-(3-Chlorophenyl)-1,2-dihydro-2-(phenylmethyl)-3H-1,2,4-triazole-3-thione]	175 to 176
O=[N+]([O-])c1ccccc1-c1nn(Cc2ccccc2)c(=S)[nH]1 [Example 6, 1,2-Dihydro-5-(2-nitrophenyl)-2-(phenylmethyl)-3H-1,2,4-triazole-3-thione]	147 to 148
N#Cc1ccc(-c2nn(Cc3ccccc3)c(=S)[nH]2)cc1 [Example 7, 5-(4-Cyanophenyl)-1,2-dihydro-2-(phenylmethyl)-3H-1,2,4-triazole-3-thione]	237 to 238
S=c1[nH]c(-c2cccc(Cl)c2Cl)nn1Cc1ccccc1 [Example 8, 5-(2,3-Dichlorophenyl)-1,2-dihydro-2-(phenylmethyl)-3H-1,2,4-triazole-3-thione]	179 to 180
S=c1[nH]c(-c2ccccc2Br)nn1Cc1ccccc1 [Example 9, 5-(2-Bromophenyl)-1,2-dihydro-2-(phenylmethyl)-3H-1,2,4-triazole-3-thione]	139 to 140
FC(F)(F)c1cccc(-c2nn(Cc3ccccc3)c(=S)[nH]2)c1 [Example 10, 1,2-Dihydro-2-(phenylmethyl)-5-[3-(trifluoromethyl)phenyl]-3H-1,2,4-triazole-3-thione]	209 to 210
S=c1[nH]c(-c2ccco2)nn1Cc1ccccc1 [Example 11, 5-(2-Furanyl)-1,2-dihydro-2-(phenylmethyl)-3H-1,2,4-triazole-3-thione]	212 to 213
COc1ccc(Br)c(-c2nn(Cc3ccccc3)c(=S)[nH]2)c1 [Example 12, 5-(2-Bromo-5-methoxyphenyl)-1,2-dihydro-2-(phenylmethyl)-3H-1,2,4-triazole-3-thione]	154 to 155
S=c1[nH]c(-c2cc(Cl)sc2Cl)nn1Cc1ccccc1 [Example 13, 5-(2,5-Dichloro-3-thienyl)-1,2-dihydro-2-(phenylmethyl)-3H-1,2,4-triazole-3-thione]	160 to 162
S=c1[nH]c(-c2ccncc2)nn1Cc1ccccc1 [Example 14, 1,2-Dihydro-2-(phenylmethyl)-5-(4-pyridinyl)-3H-1,2,4-triazole-3-thione]	160 to 162
S=c1[nH]c(-c2ccc(-c3ccccc3)cc2)nn1Cc1ccccc1 [Example 15, 1,2-Dihydro-2-(phenylmethyl)-5-(4-phenylphenyl)-3H-1,2,4-triazole-3-thione]	249 to 250
S=c1[nH]c(-c2cccnc2Cl)nn1Cc1ccccc1 [Example 16, 5-(2-Chloro-3-pyridinyl)-1,2-dihydro-2-(phenylmethyl)-3H-1,2,4-triazole-3-thione]	155 to 156
Fc1ccccc1-c1nn(Cc2ccccc2)c(=S)[nH]1 [Example 17, 5-(2-Fluorophenyl)-1,2-dihydro-2-(phenylmethyl)-3H-1,2,4-triazole-3-thione]	180 to 183
COc1ccccc1-c1nn(Cc2ccccc2)c(=S)[nH]1 [Example 18, 1,2-Dihydro-5-(2-methoxyphenyl)-2-(phenylmethyl)-3H-1,2,4-triazole-3-thione]	142 to 143.5
Cc1ccccc1-c1nn(Cc2ccccc2)c(=S)[nH]1 [Example 19, 1,2-Dihydro-5-(2-methylphenyl)-2-(phenylmethyl)-3H-1,2,4-triazole-3-thione]	150 to 153
FC(F)(F)c1ccc(-c2nn(Cc3ccccc3)c(=S)[nH]2)cc1 [Example 21, 1,2-Dihydro-2-(phenylmethyl)-5-[4-(trifluoromethyl)phenyl]-3H-1,2,4-triazole-3-thione]	201 to 203
Fc1ccc(-c2nn(Cc3ccccc3)c(=S)[nH]2)c(Cl)c1 [Example 22, 5-(2-Chloro-4-fluorophenyl)-1,2-dihydro-2-(phenylmethyl)-3H-1,2,4-triazole-3-thione]	135 to 136
COc1ccc(-c2nn(Cc3ccccc3)c(=S)[nH]2)cc1 [Example 23, 1,2-Dihydro-5-(4-methoxyphenyl)-2-(phenylmethyl)-3H-1,2,4-triazole-3-thione]	235 to 237
Cc1ccc(-c2nn(Cc3ccccc3)c(=S)[nH]2)cc1 [Example 24, 1,2-Dihydro-5-(4-methylphenyl)-2-(phenylmethyl)-3H-1,2,4-triazole-3-thione]	234 to 235

Compound	melting point [°C]
S=c1[nH]c(-c2ccc(Cl)c(Cl)c2)nn1Cc1ccccc1 [Example 25, 5-(3,4-Dichlorophenyl)-1,2-dihydro-2-(phenylmethyl)-3H-1,2,4-triazole-3-thione]	227 to 228
S=c1[nH]c(-c2ccc(Br)cc2)nn1Cc1ccccc1 [Example 26, 5-(4-Bromophenyl)-1,2-dihydro-2-(phenylmethyl)-3H-1,2,4-triazole-3-thione]	250 to 251
S=c1[nH]c(-c2ccc(Cl)cc2Cl)nn1Cc1ccccc1 [Example 27, 5-(2,4-Dichlorophenyl)-1,2-dihydro-2-(phenylmethyl)-3H-1,2,4-triazole-3-thione]	169 to 170
S=c1[nH]c(-c2cc(Cl)cc(Cl)c2)nn1Cc1ccccc1 [Example 29, 5-(3,5-Dichlorophenyl)-1,2-dihydro-2-(phenylmethyl)-3H-1,2,4-triazole-3-thione]	205 to 212
S=c1[nH]c(-c2cccc(Oc3ccccc3)c2)nn1Cc1ccccc1 [Example 30, 1,2-Dihydro-5-(3-phenoxyphenyl)-2-(phenylmethyl)-3H-1,2,4-triazole-3-thione]	200 to 202
S=c1[nH]c(-c2cccs2)nn1Cc1ccccc1 [Example 31, 1,2-Dihydro-2-(phenylmethyl)-5-(2-thienyl)-3H-1,2,4-triazole-3-thione]	230 to 231
S=c1[nH]c(-c2ccc(Cl)cc2Cl)nn1Cc1cccc(Cl)c1 [Example 32, 2-[(3-Chlorophenyl)methyl]-5-(2,4-dichlorophenyl)-1,2-dihydro-3H-1,2,4-triazole-3-thione]	190 to 191
COc1cccc(Cn2nc(-c3ccc(Cl)cc3Cl)[nH]c2=S)c1 [Example 33, 5-(2,4-Dichlorophenyl)-1,2-dihydro-2-[(3-methoxyphenyl)methyl]-3H-1,2,4-triazole-3-thione]	173 to 174
S=c1[nH]c(-c2ccc(Cl)cc2Cl)nn1Cc1cccc(Oc2ccccc2)c1 [Example 34, 5-(2,4-Dichlorophenyl)-1,2-dihydro-2-[(3-phenoxyphenyl)methyl]-3H-1,2,4-triazole-3-thione]	180 to 181
Oc1cccc(Cn2nc(-c3ccccc3)[nH]c2=S)c1 [Example 35, 1,2-Dihydro-2-[(3-hydroxyphenyl)methyl]-5-phenyl-3H-1,2,4-triazole-3-thione]	233 to 235
CSc1ccccc1-c1nn(Cc2ccccc2)c(=S)[nH]1 [Example 38, 1,2-Dihydro-5-[2-(methylthio)phenyl]-2-(phenylmethyl)-3H-1,2,4-triazole-3-thione]	170 to 171
S=c1[nH]c(-c2ccccc2Oc2ccccc2)nn1Cc1ccccc1 [Example 39, 1,2-Dihydro-5-[2-(phenoxy)phenyl]-2-(phenylmethyl)-3H-1,2,4-triazole-3-thione]	158 to 159
O=C(c1ccccc1)c1cccc(-c2nn(Cc3ccccc3)c(=S)[nH]2)c1 [Example 40, 1,2-Dihydro-5-(3-(phenylcarbonyl)phenyl)-2-(phenylmethyl)-3H-1,2,4-triazole-3-thione]	154 to 155
S=c1[nH]c(-c2ccc3ccccc3c2Br)nn1Cc1ccccc1 [Example 41, 1,2-Dihydro-5-(1-bromo-2-naphthalenyl)-2-(phenylmethyl)-3H-1,2,4-triazole-3-thione]	168 to 170
S=c1[nH]c(-c2ccccc2Cl)nn1Cc1cccc(Cl)c1 [Example 42, 5-(2-Chlorophenyl)-2-[(3-chlorophenyl)methyl]-1,2-dihydro-3H-1,2,4-triazole-3-thione]	143 to 143.5
Cc1cccc(Cn2nc(-c3ccc(Cl)cc3Cl)[nH]c2=S)c1 [Example 43, 5-(2,4-Dichlorophenyl)-1,2-dihydro-2-[(3-methylphenyl)methyl]-3H-1,2,4-triazole-3-thione]	177 to 178
S=c1[nH]c(-c2ccc(Cl)cc2Cl)nn1CCc1ccccc1 [Example 44, 5-(2,4-Dichlorophenyl)-1,2-dihydro-2-(2-phenylethyl)-3H-1,2,4-triazole-3-thione]	179 to 182
S=c1[nH]c(-c2ccc(Cl)cc2Cl)nn1Cc1ccc(Cl)cc1 [Example 45, 2-[(4-Chlorophenyl)methyl]-5-(2,4-dichlorophenyl)-1,2-dihydro-3H-1,2,4-triazole-3-thione]	205 to 206
S=c1[nH]c(-c2ccc(Br)cc2)nn1Cc1cccc(Cl)c1 [Example 46, 5-(4-Bromophenyl)-2-[(3-chlorophenyl)methyl]-1,2-dihydro-3H-1,2,4-triazole-3-thione]	242 to 243
Cc1ccc(-c2nn(Cc3cccc(Cl)c3)c(=S)[nH]2)cc1 [Example 47, 2-[(3-Chlorophenyl)methyl]-5-(4-methylphenyl)-1,2-dihydro-3H-1,2,4-triazole-3-thione]	207 to 208
COc1ccc(-c2nn(Cc3cccc(Cl)c3)c(=S)[nH]2)cc1 [Example 48, 2-[(3-Chlorophenyl)methyl]-5-(4-methoxyphenyl)-1,2-dihydro-3H-1,2,4-triazole-3-thione]	231 to 233
